US11053204B2, “Pyrimidinyloxy benzene derivatives as herbicides” (FMC Corporation, priority 2015, dated 2021)

Columns and labels:
Format in all cases: in vivo
[1] = system: Italian ryegrass (Lolium multiflorum); assay: Test A preemergence, visual injury rating; settings: Lolium multiflorum, pre-emergence, 240 h, 0 to 100 scale (0 no effect, 100 complete control), read-out: Ryegrass, Italian plant response rating
Procedure, shortened: (§1)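 Injury scores run from 0, no effect, to 100, complete control, judged by eye against untreated plants roughly 10 days after treatment. Chemicals carried a surfactant in a non-phytotoxic solvent and went onto loam–sand soil preemergence or onto one- to two-leaf seedlings postemergence.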

[2] = system: barnyardgrass (Echinochloa crus-galli); assay: Test A preemergence, visual injury rating; settings: Echinochloa crus-galli, pre-emergence, 240 h, 0 to 100 scale (0 no effect, 100 complete control), read-out: Barnyardgrass plant response rating
Procedure, shortened: as §1

[3] = system: giant foxtail (Setaria faberii); assay: Test A preemergence, visual injury rating; settings: Setaria faberi, pre-emergence, 240 h, 0 to 100 scale (0 no effect, 100 complete control), read-out: Foxtail, Giant plant response rating
Procedure, shortened: as §1

[4] = system: kochia (Kochia scoparia); assay: Test A preemergence, visual injury rating; settings: Bassia scoparia, pre-emergence, 240 h, 0 to 100 scale (0 no effect, 100 complete control), read-out: Kochia plant response rating
Procedure, shortened: as §1

[5] = system: pigweed (Amaranthus retroflexus); assay: Test A preemergence, visual injury rating; settings: Amaranthus retroflexus, pre-emergence, 240 h, 0 to 100 scale (0 no effect, 100 complete control), read-out: Pigweed plant response rating
Procedure, shortened: as §1

[6] = system: ragweed (common ragweed, Ambrosia elatior); assay: Test A preemergence, visual injury rating; settings: Ambrosia artemisiifolia, pre-emergence, 240 h, 0 to 100 scale (0 no effect, 100 complete control), read-out: Ragweed plant response rating
Procedure, shortened: as §1

[7] = system: chickweed (common chickweed, Stellaria media); assay: Test C postemergence, plant response rating; settings: Stellaria media, post-emergence
Procedure, shortened: (§2)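 Preemergence: seeds sown in loam–sand blend or silt loam and sprayed with test chemicals in a non-phytotoxic surfactant-containing solvent. Postemergence: potted plants at 2–18 cm (1–4-leaf stage) sprayed with the same formulation. After 13–15 d in greenhouse, visual rating versus controls on 0 (no effect) to 100 (complete control) scale.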

[8] = system: corn (Zea mays); assay: Test C postemergence, plant response rating; settings: Zea mays, post-emergence
Procedure, shortened: as §2

[9] = system: crabgrass, large (large crabgrass, Digitaria sanguinalis); assay: Test C postemergence, plant response rating; settings: Digitaria sanguinalis, post-emergence
Procedure, shortened: as §2

[10] = system: galium (catchweed bedstraw, Galium aparine); assay: Test C postemergence, plant response rating; settings: Galium, post-emergence
Procedure, shortened: as §2

[11] = system: kochia (Kochia scoparia); assay: Test C postemergence, plant response rating; settings: Bassia scoparia, post-emergence
Procedure, shortened: as §2

[12] = system: lambsquarters (Chenopodium album); assay: Test C postemergence, plant response rating; settings: Chenopodium album, post-emergence
Procedure, shortened: as §2

[13] = system: nutsedge, yellow (yellow nutsedge, Cyperus esculentus); assay: Test C postemergence, plant response rating; settings: Cyperus, post-emergence
Procedure, shortened: as §2

[14] = system: oat, wild (wild oat Avena fatua); assay: Test C postemergence, plant response rating; settings: Avena fatua, post-emergence
Procedure, shortened: as §2

[15] = system: ragweed (common ragweed, Ambrosia elatior); assay: Test C postemergence, plant response rating; settings: Ambrosia artemisiifolia, post-emergence
Procedure, shortened: as §2

[16] = system: ryegrass, Italian (Italian ryegrass, Lolium multiflorum); assay: Test C postemergence, plant response rating; settings: Lolium multiflorum, post-emergence
Procedure, shortened: as §2

[17] = system: soybean (Glycine max); assay: Test C postemergence, plant response rating; settings: Glycine max, post-emergence
Procedure, shortened: as §2

[18] = system: waterhemp (common waterhemp, Amaranthus rudis); assay: Test C postemergence, plant response rating; settings: for Plant response rating, Waterhemp: scale 0 to 100; for Waterhemp plant response rating: scale 0 to 100 (0 no effect, 100 complete control)
Procedure, shortened: as §2

[19] = 62 g ai/ha, scale 0 to 100 (0 no effect, 100 complete control)
[20] = 125 g ai/ha, scale 0 to 100 (0 no effect, 100 complete control)

Q: Which results are given for `O=C(OCC(F)(F)C(F)(F)F)c1c(Br)cccc1Oc1ncc(Cl)cn1` [Compound 23, 2,2,3,3,3-pentafluoropropyl 2-bromo-6-[(5-chloro-2-pyrimidinyl)oxy]benzoate]?
A: pest or weed control at 125 g/ha ([1]; 125 g ai/ha): 0%; pest or weed control at 500 g/ha ([1]; 500 g ai/ha): 40%; pest or weed control at 125 g/ha ([2]; 125 g ai/ha): 20%; pest or weed control at 500 g/ha ([2]; 500 g ai/ha): 70%; pest or weed control at 125 g/ha ([3]; 125 g ai/ha): 70%; pest or weed control at 500 g/ha ([3]; 500 g ai/ha): 100%; pest or weed control at 125 g/ha ([4]; 125 g ai/ha): 0%; pest or weed control at 500 g/ha ([4]; 500 g ai/ha): 50%; pest or weed control at 125 g/ha ([5]; 125 g ai/ha): 100%; pest or weed control at 500 g/ha ([5]; 500 g ai/ha): 100%; pest or weed control at 125 g/ha ([6]; 125 g ai/ha): 0%; pest or weed control at 500 g/ha ([6]; 500 g ai/ha): 10%; pest or weed control at 16 g/ha ([7]; 16 g ai/ha, scale 0 to 100): 5%; pest or weed control at 31 g/ha ([7]; 31 g ai/ha, scale 0 to 100): 50%; pest or weed control at 62 g/ha [7, 19]: 50%; pest or weed control at 125 g/ha [7, 20]: 85%; Corn plant response rating (crop injury, 0 = no effect, 100 = complete kill) at 16 g/ha ([8]; 16 g ai/ha, scale 0 to 100): 5%; Corn plant response rating (crop injury, 0 = no effect, 100 = complete kill) at 31 g/ha ([8]; 31 g ai/ha, scale 0 to 100): 5%; plant injury at 62 g/ha [8, 19]: 5%; plant injury at 125 g/ha [8, 20]: 10%; pest or weed control at 16 g/ha ([9]; 16 g ai/ha, scale 0 to 100): 10%; pest or weed control at 31 g/ha ([9]; 31 g ai/ha, scale 0 to 100): 10%; pest or weed control at 62 g/ha [9, 19]: 20%; pest or weed control at 125 g/ha [9, 20]: 25%; pest or weed control at 16 g/ha ([10]; 16 g ai/ha, scale 0 to 100): 50%; pest or weed control at 31 g/ha ([10]; 31 g ai/ha, scale 0 to 100): 55%; pest or weed control at 62 g/ha [10, 19]: 55%; pest or weed control at 125 g/ha [10, 20]: 80%; pest or weed control at 16 g/ha ([11]; 16 g ai/ha, scale 0 to 100): 5%; pest or weed control at 31 g/ha ([11]; 31 g ai/ha, scale 0 to 100): 50%; pest or weed control at 62 g/ha [11, 19]: 55%; pest or weed control at 125 g/ha [11, 20]: 85%; pest or weed control at 16 g/ha ([12]; 16 g ai/ha, scale 0 to 100): 25%; pest or weed control at 31 g/ha ([12]; 31 g ai/ha, scale 0 to 100): 55%; pest or weed control at 62 g/ha [12, 19]: 65%; pest or weed control at 125 g/ha [12, 20]: 80%; pest or weed control at 16 g/ha ([13]; 16 g ai/ha, scale 0 to 100): 0%; pest or weed control at 31 g/ha ([13]; 31 g ai/ha, scale 0 to 100): 0%; pest or weed control at 62 g/ha [13, 19]: 5%; pest or weed control at 125 g/ha [13, 20]: 10%; pest or weed control at 16 g/ha ([14]; 16 g ai/ha, scale 0 to 100): 5%; pest or weed control at 31 g/ha ([14]; 31 g ai/ha, scale 0 to 100): 5%; pest or weed control at 62 g/ha [14, 19]: 10%; pest or weed control at 125 g/ha [14, 20]: 5%; pest or weed control at 16 g/ha ([15]; 16 g ai/ha, scale 0 to 100): 15%; pest or weed control at 31 g/ha ([15]; 31 g ai/ha, scale 0 to 100): 35%; pest or weed control at 62 g/ha [15, 19]: 40%; pest or weed control at 125 g/ha [15, 20]: 50%; pest or weed control at 16 g/ha ([16]; 16 g ai/ha, scale 0 to 100): 0%; pest or weed control at 31 g/ha ([16]; 31 g ai/ha, scale 0 to 100): 0%; pest or weed control at 62 g/ha [16, 19]: 5%; pest or weed control at 125 g/ha [16, 20]: 5%; plant injury at 16 g/ha ([17]; 16 g ai/ha, scale 0 to 100): 20%; plant injury at 31 g/ha ([17]; 31 g ai/ha, scale 0 to 100): 30%; plant injury at 62 g/ha [17, 19]: 70%; plant injury at 125 g/ha [17, 20]: 35%; Plant response rating, Waterhemp ([18]; 16 g ai/ha): 80; Plant response rating, Waterhemp ([18]; 31 g ai/ha): 90; Waterhemp plant response rating ([18]; 62 g ai/ha): 85; Waterhemp plant response rating ([18]; 125 g ai/ha): 95
